The text below walks through data of article PMC6941952, “A homogeneous bioluminescent immunoassay to probe cellular signaling pathway regulation” (Communications Biology, 2020).

This test has as its system phospho-IκBα (Ser32). The test can be described thus: NanoBiT cell-based immunoassay, phosphorylated IκBα in MCF-7 cells. Details: species or system human. The method, then: Prior to NanoBiT Cell-Based Immunoassay, 50,000 cells were seeded in 160 µl of complete growth media per well of a 96-well plate and incubated overnight. The cells were checked under microscope and it was determined that 50,000 cells per well in 96-well plate is under 90% confluency for all cells tested. If necessary, the cell culture media were replaced with serum-free media after the cells were stably adherent on the plate and incubated overnight. To treat cells with activators or inhibitors, medium was changed to 30 µl of medium containing inhibitors. If activation of a specific pathway is needed, the cells were stimulated with 10 µl of medium containing activators. To lyse the cells, 10 µl of lysis buffer containing 0.1% digitonin diluted in 1X immunoassay buffer with protease and phosphatase inhibitors was added and the plates were mixed vigorously for 20 min. Then, 50 µl of an antibody mix containing two primary antibodies against the target protein and NanoBiT detecting antibodies (0.3 µl each per well), diluted in 1X immunoassay buffer was added to the lysates. The plates were incubated at 23 °C for 90 min, followed by the addition of 25 µl of Nano-Glo® reagent consisting of Nano-Glo® Luciferase Assay Substrate mixed with 1X immunoassay buffer. Luminescence was measured using a plate-reading luminometer.
In all, 50,000 MCF-7 cells were seeded in 160 µl complete growth medium per well of a 96-well plate and incubated overnight. Half of the cells were treated with 50 ng per ml TNFα and half with vehicle. Cells were lysed as described above and a mixture of NanoBiT secondary antibodies with primary antibodies at the matrix concentrations described in Fig. 2a were added. After 90 min incubation, the Nano-Glo® reagent was added to the reactions as described above and luminescence was measured using a plate-reading luminometer.
Single dose or dose response inhibitor treatments were performed prior to activation of the pathways as follows. For IκBα, the cells were treated in 30 µl medium with IKK16 or MG132 for 60 min before the addition of 10 µl of DMEM containing appropriate concentration of TNFα. To measure phosphorylation of AKT or STAT3, the corresponding NanoBiT immunoassays were developed with MCF-7 or A431 cells, respectively, according the same scheme used to develop the IκBα assay using the primary antibodies for AKT and STAT3 described in the reagents section. For the AKT assay, MCF-7 cells were incubated overnight in phenol-red free DMEM medium (Gibco #21063-029) without serum. Treatment with LY294002 was performed in 30 µl medium and cells were incubated for 60 min before the addition of 1 µM Insulin. To measure STAT3 phosphorylation, A431 cells were incubated overnight in DMEM medium without serum. […] After addition of the stimulators, the cells were incubated for additional times as follows. IκBα phosphorylation and degradation analyses required both time courses and single time points as described in figures. […] The NanoBiT immunoassay protocol was followed as described above.
All 96-well assay plates were read using a GloMax® 96 Microplate Luminometer from Promega. The instrument was set to 0.5 s integration time. In order to obtain net change of signal, the reagent background values (signal from the well containing all reagent except primary antibodies) were subtracted from the sample values. To plot and analyze the data, Microsoft Excel and GraphPad Prism® Software were used. IC50 values were determined by using a nonlinear regression fit to a sigmoidal dose response (variable slope).

Molecules are shown by their SMILES. Where “and” joins values, the source holds several entries; their conditions need not be identical. Identical values can stand only once.

For `O=C(c1ccc(Nc2nccc(-c3cc4ccccc4s3)n2)cc1)N1CCC(N2CCCC2)CC1` [IKK16], under “Figure 3a and 3b”, the “P-IkB Raw data” value was 17490 and 17630 and 17730; the “P-IkB Subtract reagent background” value was 280 and 420 and 520. The “P-IkB Average” value (Figure 3a and 3b, background subtracted) turned out to be 407. Further, for the setting “MCF-7 cells, 10 µM 1 h, TNFα 50 ng per ml 10 min”, the “TNFα-induced phosphorylation of IκBα on serine 32” value is on record as “suppressed”.
